# In patent US20090048310A1, “AGENT FOR PREVENTION/TREATMENT OF DISEASE CAUSED BY ACYCLOVIR-RESISTANT HERPESVIRUS” (ASTELLAS PHARMA INC., priority 2005, published 2009):
# Key:
# HSV-1 strain WT-51 = assay: Cutaneous HSV-1 infection mouse model; format: in vivo, HR-1 hairless mouse; settings: oral, 10 mg/kg twice a day for 5 days, scores for 17 days
# Description: Using a cutaneous HSV-1 infection mouse model prepared in reference to the method of H. Machida et al. (Antiviral Res., 1992, 17, 133-143), the in vivo […] of the compounds of the present invention was tested using an animal model. The skin of each HR-1 hairless mouse [female, 7 weeks of age] was scratched lengthwise and breadthwise several times using a needle and a virus suspension (HSV-1 strain WT-51, 1.5×10^4 PFU/15 μl) was dropped to the scarified region for infection, while anesthetized with diethyl ether.
# Tested compounds were administered orally as a methyl cellulose suspension, except for compounds marked with asterisk which were dissolved in 20% Cremophor EL (Nacalai Tesque)/20% polyethylene glycol (PEG) 400/60% H2O solution, starting at 3 hours after the infection, and then at a dose of 10 mg/kg twice a day for 5 days. The symptom of the skin lesion caused by HSV-1 infection were classified in the following scores for 17 days:
# Score 0: no signs of infection.
# Score 1: localized, barely perceptible small vesicles.
# Score 2: slight vesicle spread.
# Score 3: large patches of vesicles formed.
# Score 4: zosteriform vesicles.
# Score 5: large patches of ulcers formed.
# Score 6: zosteriform with severe large ulcers.
# Score 7: hind limb paralysis or death.
# The AUC value was calculated from each group's mean disease score, and the disease inhibitory rate of the group administered with each test compound to the placebo group was calculated using the AUC.
# ACV-resistant HSV-1 = ACV-resistant HSV-1 infection lethal model in nude mice; format: in vivo, nude mouse (CD-1(ICR)-nu/nu); settings: 100 mg/kg oral twice a day for 15 days
# Description: ACV-resistant HSV-1 (3×10^6 pfu) was inoculated into the peritoneal cavity of each nude mouse (CD-1(ICR)-nu/nu, […], female, Charles River Japan) to cause infection with the virus. Each compound to be tested was made into a methyl cellulose suspension and orally administered at a dose of 100 mg/kg, twice a day for 15 days starting 1 hour after the infection (from 0 to 14 days after the infection).
# During 17 days after the infection, death of the mice caused by ACV-resistant HSV-1 infection was observed every day, and the number of survived animals was counted.
# [1] = dissolved in 20% Cremophor EL/20% PEG 400/60% H2O (asterisk)
compound,measurement,setting,value
"Cc1cc(F)cc(C)c1N(CC(=O)Nc1ccc(-c2ncon2)cc1)C(=O)C1CCS(=O)(=O)CC1 [Preparation 31, N-(4-fluoro-2,6-dimethylphenyl)-N-(2-{[4-(1,2,4-oxadiazol-3-yl)phenyl]amino}-2-oxoethyl)tetrahydro-2H-thiopyran-4-carboxamide 1,1-dioxide]",Inhibition ratio (%) (disease inhibitory rate vs placebo from AUC of mean disease score),HSV-1 strain WT-51; [1],* 86%
"COc1ccc(N(CC(=O)Nc2ccc(-c3csc(N)n3)cc2)C(=O)C2CCC(O)CC2)cc1 (centres unmarked) [Comparative compound C, reference compound]",Inhibition ratio (%) (disease inhibitory rate vs placebo from AUC of mean disease score),HSV-1 strain WT-51; methyl cellulose suspension,44%
"Nc1nc(-c2ccc(NC(=O)CN(C(=O)C3CCS(=O)(=O)CC3)c3ccc4c(c3)CCC4)cc2)cs1 [Comparative compound D, reference compound]",Inhibition ratio (%) (disease inhibitory rate vs placebo from AUC of mean disease score),HSV-1 strain WT-51; methyl cellulose suspension,43%
"Cc1ccc(N(CC(=O)Nc2ccc(-c3cocn3)cc2)C(=O)C2CCS(=O)(=O)CC2)c(F)c1 [Preparation 20, N-(2-fluoro-4-methylphenyl)-N-(2-{[4-(1,3-oxazol-4-yl)phenyl]amino}-2-oxoethyl)tetrahydro-2H-thiopyran-4-carboxamide 1,1-dioxide]",Inhibition ratio (%) (disease inhibitory rate vs placebo from AUC of mean disease score),HSV-1 strain WT-51; methyl cellulose suspension,91%
"Nc1nc(-c2ccc(NC(=O)CN(C(=O)c3ccc(F)cc3)c3ccc4ncsc4c3)cc2)cs1 [Comparative compound A, reference compound]",Inhibition ratio (%) (disease inhibitory rate vs placebo from AUC of mean disease score),HSV-1 strain WT-51; methyl cellulose suspension,38%
"Cc1cc(N(CC(=O)Nc2ccc(-c3cocn3)cc2)C(=O)C2CCS(=O)(=O)CC2)ccc1Cl [Preparation 13, N-(4-chloro-3-methylphenyl)-N-(2-{[4-(1,3-oxazol-4-yl)phenyl]amino}-2-oxoethyl)tetrahydro-2H-thiopyran-4-carboxamide 1,1-dioxide]",Inhibition ratio (%) (disease inhibitory rate vs placebo from AUC of mean disease score),HSV-1 strain WT-51; methyl cellulose suspension,89%
"Cc1ccc(N(CC(=O)Nc2ccc(-c3ncon3)cc2)C(=O)C2CCS(=O)(=O)CC2)cc1F [Preparation 35, N-(3-fluoro-4-methylphenyl)-N-(2-{[4-(1,2,4-oxadiazol-3-yl)phenyl]amino}-2-oxoethyl)tetrahydro-2H-thiopyran-4-carboxamide 1,1-dioxide]",Inhibition ratio (%) (disease inhibitory rate vs placebo from AUC of mean disease score),HSV-1 strain WT-51; methyl cellulose suspension,82%
"Cc1ccc(N(CC(=O)Nc2ccc(-c3ncon3)cc2)C(=O)C2CCS(=O)(=O)CC2)c(C)c1 [Preparation 25, N-(2,4-dimethylphenyl)-N-(2-{[4-(1,2,4-oxadiazol-3-yl)phenyl]amino}-2-oxoethyl)tetrahydro-2H-thiopyran-4-carboxamide 1,1-dioxide]",Inhibition ratio (%) (disease inhibitory rate vs placebo from AUC of mean disease score),HSV-1 strain WT-51; [1],* 70%
"Cc1cccc(C)c1N(CC(=O)Nc1ccc(-c2cocn2)cc1)C(=O)C1CCS(=O)(=O)CC1 [Preparation 1, N-(2,6-dimethylphenyl)-N-(2-{[4-(1,3-oxazol-4-yl)phenyl]amino}-2-oxoethyl)tetrahydro-2H-thiopyran-4-carboxamide 1,1-dioxide]",Inhibition ratio (%) (disease inhibitory rate vs placebo from AUC of mean disease score),HSV-1 strain WT-51; [1],* 93%
"Cc1cccc(N(CC(=O)Nc2ccc(-c3ncon3)cc2)C(=O)C2CCS(=O)(=O)CC2)c1C [Preparation 24, N-(2,3-dimethylphenyl)-N-(2-{[4-(1,2,4-oxadiazol-3-yl)phenyl]amino}-2-oxoethyl)tetrahydro-2H-thiopyran-4-carboxamide 1,1-dioxide]",Inhibition ratio (%) (disease inhibitory rate vs placebo from AUC of mean disease score),HSV-1 strain WT-51; methyl cellulose suspension,89%
"CC(C)[C@H](N)C(=O)OCCOCn1cnc2c(=O)nc(N)[nH]c21 [VCV, valcyclovir, reference compound]",death suppressing effect (in words),ACV-resistant HSV-1; 17 days after infection,clear death suppressing effect was not found
same,The number of survived animals (n = 10),ACV-resistant HSV-1; day 0 after infection,10
same,The number of survived animals (n = 10),ACV-resistant HSV-1; day 1 after infection,10
same,The number of survived animals (n = 10),ACV-resistant HSV-1; day 2 after infection,10
same,The number of survived animals (n = 10),ACV-resistant HSV-1; day 4 after infection,10
same,The number of survived animals (n = 10),ACV-resistant HSV-1; day 5 after infection,10
same,The number of survived animals (n = 10),ACV-resistant HSV-1; day 6 after infection,10
same,The number of survived animals (n = 10),ACV-resistant HSV-1; day 7 after infection,9
same,The number of survived animals (n = 10),ACV-resistant HSV-1; day 8 after infection,8
same,The number of survived animals (n = 10),ACV-resistant HSV-1; day 9 after infection,4
same,The number of survived animals (n = 10),ACV-resistant HSV-1; day 10 after infection,2
same,The number of survived animals (n = 10),ACV-resistant HSV-1; day 11 after infection,2
same,The number of survived animals (n = 10),ACV-resistant HSV-1; day 12 after infection,2
same,The number of survived animals (n = 10),ACV-resistant HSV-1; day 14 after infection,2
same,The number of survived animals (n = 10),ACV-resistant HSV-1; day 16 after infection,2
same,The number of survived animals (n = 10),ACV-resistant HSV-1; day 17 after infection,2
